Source: paper PMC4550478, “Metronidazole-triazole conjugates: Activity against Clostridium difficile and parasites” (European Journal of Medicinal Chemistry, 2015)
pEC50: −log10 of the molar value. Converted amounts (≈) assume the structure as drawn. Where two headings read alike, the source gives them in different places.

What was measured:
[1] = test system: C. difficile NAP1/027 CD26A54_R; assay: MIC broth microdilution, metronidazole resistant C. difficile CD26A54_R; type: cell-based, Clostridium difficile; details: for MIC: Clostridioides difficile
[2] = test system: E. histolytica HM1:IMSS trophozoites; assay: ATP-bioluminescence growth and survival assay, E. histolytica; type: cell-based, Entamoeba histolytica; details: Entamoeba histolytica; MtzS, 48 h, anaerobic, n = 3
Description: (§1) Compounds were tested for antiparasitic activity against E. histolytica (HM1:1MSS strain) and G. lamblia (WB, BRIS/87/HEPU/713 (713), BRIS/83/HEPU/106 (106) and the metronidazole resistant syngeneic line 713-M3 [[15,16]]) using an ATP-bioluminescence based screen for cell growth and survival [[17,18]]. Assay plates were inoculated with trophozoites (5 × 10^3 parasites/well) and incubated in the GasPak™ EZ Anaerobe Gas Generating Pouch Systems (VWR, West Chester, PA) to maintain anaerobic conditions throughout the incubation period. The assays were performed in triplicate using the CellTiter-Glo Luminescent Cell Viability Assay. Metronidazole was used as a positive control.
(§2) Trophozoites of E. histolytica strain HM1:IMSS and G. lamblia strains WB, BRIS/87/HEPU/713 (713),^10 BRIS/83/HEPU/106 (106)^11 and the metronidazole resistant syngenic line 713-M3^10,11 were axenically maintained in TYI-S-33 medium supplemented with penicillin (100 U/ml), streptomycin (100 µg/ml).^12 E. histolytica and G. lamblia trophozoites were counted using a particle counter (Beckman Coulter, Fullerton, CA). All experiments were performed using trophozoites harvested during the logarithmic phase of growth.
(§3) A three-fold serial dilution was then performed yielding a concentration range 0.25-625 µM. From this dilution plate, 4 µL were transferred into the 96-well screen plates followed by addition of 96 µL of trophozoites (5,000 parasites) to yield a final 8-point concentration range spanning 0.01- 25 µM. Assay plates were incubated for 48 h at 37 °C in the GasPak^TM EZ Anaerobe Gas Generating Pouch Systems (VWR, West Chester, PA) to maintain anaerobic condition throughout the incubation period. The assays were performed in triplicate using the CellTiter-Glo Luminescent Cell Viability Assay.^13

[3] = test system: G. lamblia BRIS/87/HEPU/713 (713); assay: ATP-bioluminescence growth and survival assay, G. lamblia 713; type: cell-based; details: Giardia duodenalis, read-out: EC50 G. lamblia 713
Description: as §1, §2, §3

[4] = test system: G. lamblia 713-M3 (713M); assay: ATP-bioluminescence growth and survival assay, metronidazole resistant G. lamblia 713-M3; type: cell-based; details: Giardia duodenalis, read-out: EC50 G. lamblia 713M
Description: as §1, §2, §3

[5] = test system: G. lamblia WB trophozoites; assay: ATP-bioluminescence growth and survival assay, G. lamblia WB; type: cell-based, Giardia lamblia; details: Giardia duodenalis; MtzS, 48 h, anaerobic, n = 3
Description: as §1, §2, §3

[6] = test system: G. lamblia BRIS/83/HEPU/106 (106); assay: ATP-bioluminescence growth and survival assay, G. lamblia 106; type: cell-based; details: Giardia duodenalis, read-out: EC50 G. lamblia 106
Description: as §1, §2, §3

[7] = MIC against ESKAPE pathogens, aerobic; type: cell-based; details: aerobic conditions, single concentration screen, n = 3; read-out: MIC ESKAPE bacteria
Description: All compounds were tested for activity against a set of anaerobic C. difficile bacteria (630 ATCC BAA-1382, NAP1/027 M7404, NAP1/027 ATCC BAA-1803, VPI10463 ATCC 43255, CD26A54_S and CD26A54_R) and representative ESKAPE pathogens S. aureus (MRSA ATCC 43300), E. coli (ATCC 25922), K. pneumoniae (ATCC 700603), A. baumannii (ATCC 19606) and P. aeruginosa (ATCC 27853) using a standard broth microdilution assay. Selected compounds were tested for activity against H. pylori strains (26695, and clinical isolates MtzS 13/25, MtzR 98/285 and MtzR 13/61) using agar plate dilution, and for antimicrobial activity against twelve Gram-positive bacterial strains: Enterococcus faecalis (VanA clinical isolate), Enterococcus faecium (MDR VanA ATCC 51559), Streptococcus pneumoniae (MDR ATCC 700677), S. aureus (MRSA ATCC 43300, MRSA clinical isolate, MRSA/DRSA clinical isolate, GISA NARSA NRS 1, GISA NARSA NRS 17, VRSA NARSA VRS1, VRSA NARSA VRS4 and VRSA NARSA VRS10) using broth microdilution. C. difficile strains were grown at 37 °C in a COY anaerobic chamber (5% H2, 10% CO2, 85% N2). H. pylori strains were grown at 37 °C under a microaerobic atmosphere (5% O2, 10% CO2). All facultative anaerobic bacteria were grown at 37 °C with normal atmospheric oxygen levels. […] Positive growth control of bacteria and DMSO as well as a negative control of only media were included for every plate. Full assay details are provided in the supplementary information.
MICs were determined by a two-fold serial broth micro dilution according to the recommendation of CLSI standards with an inoculum of 5 × 10^5 CFU/mL^4 The compounds along with standard antibiotics were serially diluted twofold across the wells of 96-well non-binding surface plates (NBS, Corning). […] Gram-positive and Gram-negative bacteria were cultured in Mueller Hinton broth (MHB) (Bacto laboratories, Cat. no. 211443) at 37 °C overnight. A sample of each culture was then diluted 40-fold in fresh MHB broth and incubated at 37 °C for 2-3 h. The resultant mid-log phase cultures were diluted to the final concentration of 5 × 10^5 CFU/mL, then 50 μL was added to each well of the compound containing 96-well plates. All the plates were covered and incubated at 37 °C for 24 h.

[8] = test system: C. difficile NAP1/027 CD26A54_S; assay: MIC broth microdilution, C. difficile CD26A54_S; type: cell-based, Clostridium difficile; details: Clostridioides difficile
[9] = 24 hr incubation, read-out: MIC C. difficile NAP1/027 CD26A54_R 24 hr
[10] = CD26A54_R, MtzR, 48 h growth, BHIS broth, n = 8, read-out: MIC C. difficile NAP1/027 CD26A54_R 48 h
[11] = 24 hr incubation, read-out: MIC C. difficile NAP1/027 CD26A54_S 24 hr
[12] = CD26A54_S, MtzS (intermediary), 48 h growth, read-out: MIC C. difficile NAP1/027 CD26A54_S 48 h
[13] = MtzS, purified compounds, this study

SMILES	MIC [1, 9] [µg/mL]	MIC [1, 10] [µg/mL]	pEC50 [2]	pEC50 [3]	pEC50 [4]	pEC50 [5]	pEC50 [6]	MIC [7] [µg/mL]	MIC [8, 11] [µg/mL]	MIC [8, 12] [µg/mL]	MIC C. difficile NAP1/027 CD26A54_R 24 hr ([1]; 24 hr incubation) [µg/mL]	pEC50 [3, 13]	pEC50 [6, 13]
COC(=O)c1cn(CCn2c([N+](=O)[O-])cnc2C)nn1 [Compound 4f, 1-(2-(2-methyl-5-nitro-1H-imidazol-1-yl)ethyl)-4-(methoxycarbonyl)-1H-1,2,3-triazole]	4 (≈ 14.3 µM)	4 (≈ 14.3 µM)	< 4.60	5.74	5.51	5.52	5.70	> 32	1 (≈ 3.57 µM)	2 (≈ 7.14 µM)	–	–	–
Cc1ncc([N+](=O)[O-])n1CCn1cc(-c2ccsc2)nn1 [Compound 4n, 1-(2-(2-methyl-5-nitro-1H-imidazol-1-yl)ethyl)-4-(thiophen-3-yl)-1H-1,2,3-triazole]	2 (≈ 6.57 µM)	2 (≈ 6.57 µM)	5.42	6.74	6.05	6.43	6.47	> 32	1 (≈ 3.29 µM)	1 (≈ 3.29 µM)	–	–	–
COc1ccc(-c2cn(CCn3c([N+](=O)[O-])cnc3C)nn2)cc1 [Compound 4b, 1-(2-(2-methyl-5-nitro-1H-imidazol-1-yl)ethyl)-4-(4-methoxyphenyl)-1H-1,2,3-triazole]	4 (≈ 12.2 µM)	4 (≈ 12.2 µM)	5.32	6.19	6.00	6.57	6.19	> 32	1 (≈ 3.05 µM)	1 (≈ 3.05 µM)	–	–	–
Cc1ncc([N+](=O)[O-])n1CCO [Compound 1, metronidazole]	2 (≈ 11.7 µM)	4 (≈ 23.4 µM)	5.30	–	4.77	5.10	–	> 32	1 (≈ 5.84 µM)	1 (≈ 5.84 µM)	2 (≈ 11.7 µM)	5.64	5.55
Cc1ncc([N+](=O)[O-])n1CCn1cc(-c2ccc(Cl)cc2)nn1 [Compound 4c, 1-(2-(2-methyl-5-nitro-1H-imidazol-1-yl)ethyl)-4-(4-chlorophenyl)-1H-1,2,3-triazole]	8 (≈ 24 µM)	16 (≈ 48.1 µM)	5.44	5.92	5.46	6.70	6.05	> 32	1 to 2 (≈ 3.01 to 6.01 µM)	2 (≈ 6.01 µM)	–	–	–
Cc1ncc([N+](=O)[O-])n1CCn1cc(-c2ccccn2)nn1 [Compound 4h, 1-(2-(2-methyl-5-nitro-1H-imidazol-1-yl)ethyl)-4-(2-pyridinyl)-1H-1,2,3-triazole.xTFA]	2	4	5.34	6.55	6.02	6.13	6.42	> 32	1	1	–	–	–
Cc1ncc([N+](=O)[O-])n1CCn1cc(Cc2ccccc2)nn1 [Compound 4k, 1-(2-(2-methyl-5-nitro-1H-imidazol-1-yl)ethyl)-4-benzyl-1H-1,2,3-triazole]	2 (≈ 6.4 µM)	4 (≈ 12.8 µM)	5.72	6.49	5.96	6.15	6.29	> 32	1 (≈ 3.2 µM)	1 (≈ 3.2 µM)	–	–	–
Cc1ncc([N+](=O)[O-])n1CCn1cc(CN(C)Cc2ccccc2)nn1 [Compound 4m, 1-(2-(2-methyl-5-nitro-1H-imidazol-1-yl)ethyl)-4-(N-benzyl, N-methylaminomethyl)-1H-1,2,3-triazole]	8 (≈ 22.5 µM)	8 (≈ 22.5 µM)	5.34	6.15	5.66	5.80	5.96	> 32	2 (≈ 5.63 µM)	2 (≈ 5.63 µM)	–	–	–
Cc1ncc([N+](=O)[O-])n1CCn1cc(-c2ccccc2)nn1 [Compound 4a, 1-(2-(2-methyl-5-nitro-1H-imidazol-1-yl)ethyl)-4-phenyl-1H-1,2,3-triazole]	2 (≈ 6.7 µM)	2 (≈ 6.7 µM)	5.38	6.80	5.64	6.60	6.55	> 32	1 (≈ 3.35 µM)	1 (≈ 3.35 µM)	–	–	–
Cc1ccc(-c2cn(CCn3c([N+](=O)[O-])cnc3C)nn2)cc1 [Compound 4e, 1-(2-(2-methyl-5-nitro-1H-imidazol-1-yl)ethyl)-4-(p-tolyl)-1H-1,2,3-triazole]	2 (≈ 6.4 µM)	2 (≈ 6.4 µM)	5.43	6.54	6.00	6.74	6.54	> 32	1 (≈ 3.2 µM)	1 (≈ 3.2 µM)	–	–	–
